Results published in patent publication US12263156B2, “Use of small molecule inhibitors of the BfrB:Bfd interaction in biofilms” (priority 2020, dated 2025).

Experiments:
[1] = system: P. aeruginosa PAO1 pellicle cells; test: Total intracellular iron in biofilm-embedded cells; format: cell-based, Pseudomonas aeruginosa; settings: 24 h; KM-5-25 40 μM, KM-5-66 20 μM
Description: Recombinant BfrB (BfrBrec) was used as a standard for the electrophoretic mobility of BfrB. The lane corresponding to untreated control was loaded with 0.5× the volume of the lanes loaded with lysates from treated pellicles to account for the ˜2-fold larger number of viable cells in the untreated pellicles. Lanes loaded with treated pellicle lysates show greater accumulation of iron in BfrB relative to untreated cells. […] (A), (C) and (D) show the average of results from 3 biological replicates, p<0.001 is denoted by *** relative to untreated.
Pellicle biofilms were grown for 48 hours as described above. The pellicles were transferred onto square (2 cm×2 cm) glass coverslips by gently contacting the pellicle with the coverslip. […] Levels of total intracellular iron were determined as reported previously:^23, 86 the cell pellets were treated with 500 μL of freshly prepared digestion reagent (0.6 N HCl, 2.25% (w/v) KMnO4 in water), thoroughly mixed by vortexing, and then incubated at 65° C. for 3.5 hours. […] The iron concentration was measured from the absorbance of the Fe^2+-Ferene S complex (ε593=34.5 mM^−1 cm^−1),^87 normalized by the viable cell counts and reported as Fe atoms per cell. […]

[2] = molecular target: BfrB (apo-BfrB) (Pseudomonas aeruginosa (strain ATCC 15692 / DSM 22644 / CIP 104116 / JCM 14847 / LMG 12228 / 1C / PRS 101 / PAO1), UniProt Q9HY79); test: Fluorescence polarization measurement of dissociation constant (Kd); format: binding; settings: for Kd: 100 mM potassium phosphate buffer pH 7.6, 1 mM TCEP, 0.5% DMSO, average ± SD
Experimental: Values were obtained in 100 mM potassium phosphate buffer (pH 7.6) containing 1 mM TCEP and 0.5% DMSO. The initial concentrations of KM-5-25 and KM-5-66 were 5 μM. The Kd values are the average and standard deviation from three independent measurements. […] The IC50 values are the average and the standard derivations from three independent experiments.
Prior to testing the effect that the 4-substituted isoindoline-1,3-dione derivatives might exert on P. aeruginosa cells, the strength of their interaction with BfrB was evaluated in vitro with a fluorescence polarization assay developed based on the intrinsic fluorescence of the isoindoline-1,3-dione moiety.

SMILES	total intracellular iron normalized to viable cell counts, relative to untreated biofilms [1] [fold]	Kd [2] [nM]	fold decrease of Kd relative to compound 16 ([2]; relative to compound 16) [fold]	fold higher binding affinity for BfrB relative to JAG-5-7 ([2]; relative to JAG-5-7) [fold]
O=C1NC(=O)c2c(NCCCc3cc(O)cc(Cl)c3)cccc21 [KM-5-66]	~2.5	350 ± 50	~4	–
O=C1NC(=O)c2c(NCc3cc(Cl)ccc3O)cccc21 [KM-5-25]	~2.5	4000 ± 600	–	~2
